Experiments:
[1] = test system: GAT1 and GAT2 events; assay: Herbicide efficacy trials in 9 locations, herbicide-induced necrosis and chlorosis injury; format: in vivo, Brassica
Description: (§1) Transgenic events expressing GAT1 and GAT2 genes were tested herein. GAT1, as mentioned herein is the Brassica GAT event DP-073496-4 (PCT International Patent Application No. PCT/US2010/058011, incorporated by reference). GAT2, as mentioned herein is another transgenic Brassica line expressing a GAT variant.
Chlorosis percent injury describes a visual rating of the percentage of the plant with a yellowing of the apical meristem, newest leaves or older leaves, where 100% denotes that all tissue is yellow, and 0% denotes the absence of yellowing tissue in plants treated with herbicide.
GAT2 events were subjected to herbicide efficacy trials along with the GAT1 as diagonal check in 9 different locations. The herbicide efficacy trials consisted of 6 treatments that included: a control with no glyphosate, 2X, 4X or 8X glyphosate administered at the 3-5 leaf stage (1X=675 g ae/ha), a 2X administered during the 3-5 leaf stage and during the green bud stage (+2X Green Bud), and a 2X administered during the 3-5 leaf stage and during 10% bloom (+2X 10% Bloom). Herbicide-induced necrosis and chlorosis injury was recorded at leaf stages 5, 10, 21 and 30 DAT (days after treatment). […] Yield from different treatments was expressed as a percent to the 2X treatment at the 3 to 5 leaf stage. […] The application of 4X glyphosate at the 3-5 leaf stage led to a 6 to 8% decrease in yield compared to the 2X treatment, and at the 8X rate, yield decreased from 10 to 12% in treated events compared to the 2X treatment (FIG. 3).

[2] = test system: canola event DP-73496-4 (GAT1); assay: Herbicide efficacy field trials, determination of yield; format: in vivo
Description: Field trials were split plot designed with glyphosate treatments as the main factor and entries as the subplot. The split-plot design was used since more than one glyphosate treatment in each location was evaluated, where a different treatment to an individual plot was applied. In split-plot, the levels of the main-plot factor (glyphosate treatments) and the sub-plot factors (individual event entries) within the main-plots were randomized.
The following treatments with glyphosate were used as detailed below at different growth stages. In these tests, 1X glyphosate treatment was at 675 g ae/ha, 2X glyphosate treatment was at 1350 g ae/ha, 3X glyphosate treatment was at 2025 g ae/ha and 4X glyphosate treatment was at 2700 g ae/ha as active ingredient of glyphosate. All treatments were applied using a mechanical sprayer. For example, in Treatment 1 below, “2X cotyledon” describes a treatment of 1350 g ae/ha of glyphosate at the cotyledon growth stage. Various treatments were tested over a two year period and are described below.
(§2) • 1. 2X cotyledon • 2. 2X 3-5 leaf stage • 3. 2X cot+2X 3-5 leaf stage • 4. 2X cot+2X bolting BBCH55 • 5. 4X cotyledon • 6. 4X 3-5 leaf stage Treatments Tested in Year 2: • 1. 1X cotyledon+1X 3-5 leaf stage • 2. 2X cotyledon+2X 3-5 leaf stage • 3. 1X cotyledon+1X green bud BBCH51 • 4. 2X cotyledon+2X green bud BBCH51 • 5. 1X cotyledon+1X 10% flower BBCH61 • 6. 2X cotyledon+2X 10% flower BBCH61
To reduce the growth of weeds in the control plots, conventional herbicides or mechanical pulling of weeds were used as needed. There was no glyphosate applied to the control plots and was used as the control/base to which other glyphosate treatments were compared. The control plots may have had one or more weeds present during the growing season. Control is based on conventional herbicides that are registered for use in all canola.
Plots were considered desiccated when 60-70% of the seed had turned from green to black colour. Combining occurred 5-14 days after desiccation depending on the weather conditions. Each plot was harvested individually. Moisture and weight were recorded directly on the combine. Yield was determined for the GAT1 event.
Various locations were used in the test. Trials were evaluated across 10 locations in both Year 1 and Year 2. Locations included several sites in the short, mid, and long season zones across both years.
The event that was tested was canola event DP-73496-4 (GAT1) (PCT International Patent Application No. PCT/US2010/058011, incorporated by reference).
Late stage glyphosate applications are applications of glyphosate at later growth stages than on the glyphosate label. […]

[3] = test system: GAT1 and GAT2 events; assay: Herbicide efficacy trials in 9 locations, yield as percent to the 2X treatment at the 3 to 5 leaf stage; format: in vivo, Brassica; details: 2X at the 3-5 leaf stage and 2X during green bud or 10% bloom stage; FIG. 3
Description: as §1
Percentage of yield relative to 2X describes the yield obtained for the GAT events treated with respective glyphosate herbicide treatments compared to the same GAT events subjected to a solution containing 2X glyphosate treatment at the 3 to 5 leaf stage, expressed as a percentage of the 2X treatment at the 3 to 5 leaf stage.
GAT2 events were subjected to herbicide efficacy trials along with the GAT1 as diagonal check in 9 different locations. The herbicide efficacy trials consisted of 6 treatments that included: a control with no glyphosate, 2X, 4X or 8X glyphosate administered at the 3-5 leaf stage (1X=675 g ae/ha), a 2X administered during the 3-5 leaf stage and during the green bud stage (+2X Green Bud), and a 2X administered during the 3-5 leaf stage and during 10% bloom (+2X 10% Bloom). Herbicide-induced necrosis and chlorosis injury was recorded at leaf stages 5, 10, 21 and 30 DAT (days after treatment). […] Yield from different treatments was expressed as a percent to the 2X treatment at the 3 to 5 leaf stage. […]

[4] = test system: canola event DP-73496-4 (GAT1); assay: Herbicide efficacy field trials, chlorosis / crop response after late stage glyphosate application; format: in vivo
Excerpt: Field trials were split plot designed with glyphosate treatments as the main factor and entries as the subplot. Entries were randomized within the split factor, and the split was randomized within the replicate.
The following treatments with glyphosate were used as detailed below at different growth stages. In these tests, 1X glyphosate treatment was 675 g ae/ha, 2X glyphosate treatment was 1350 g ae/ha, 3X glyphosate treatment was 2025 g ae/ha and 4X glyphosate treatment was 2700 g ae/ha. All treatments were applied using a mechanical sprayer. For example, in Treatment 1 below, “2X cotyledon” describes a treatment of 1350 g ae/ha of glyphosate at the cotyledon growth stage. Various treatments were tested over a two year period and are described below.
as §2
Percent chlorosis was determined. Visual rating of chlorosis on plants was taken during the period indicated (i.e. 3-5 days) after spray application. Yellowing of the apical meristem, newest leaves or older leaves indicated herbicide-induced chlorotic injury. 100%=all tissue is yellow, 0%=no signs of yellowing tissue.
Late stage glyphosate applications are applications of glyphosate at later growth stages than on the glyphosate label. […] In Year 1, the expanded window application of glyphosate was 2X cot+2X bolting BBCH55; a 2X treatment during the cotyledon stage and an additional 2X treatment during the plant growth stage where individual flower buds (main inflorescence) are visible but are still closed. In Year 2, 1X cotyledon, 1X green bud BBCH51; 2X cotyledon, 2X green bud BBCH51; 1X cotyledon, 1X 10% flower BBCH61; and 2X cotyledon, 2X 10% flower BBCH61 expanded window treatments were included.

O=C(O)CNCP(=O)(O)O [glyphosate]
chlorotic injury ([1]; both GAT1 and GAT2 events, even at 8X spray rates, and during green bud and 10% bloom, FIG. 2): Negligible | herbicide-induced necrotic injury ([1]; even at 8X spray rates (1X = 675 g ae/ha), FIG. 1): minimally observed | herbicide-induced injury (necrosis, chlorosis) beyond 10 DAT ([1]; rated 5, 10, 21 and 30 DAT, 2X, 4X, 8X at 3-5 leaf, 2X+2X green bud, 2X+2X 10% bloom): No injury was observed | yield compared to the control treatment ([2]; Year 1, 2X Cot and 2X Bolting BBCH55): not significantly different | yield compared to the control treatment ([2]; Year 2, late split applications at 2X glyphosate (1350 g ae/ha), BBCH51 and BBCH61): did not result in yield reduction | yield compared to the control treatment ([2]; Year 2, split applications 1X Cot and 1X BBCH51 (green bud), 1X Cot and 1X BBCH61 (10% flower), four backgrounds, 1X = 675 g ae/ha): did not result in yield reduction | yield of GAT1 compared to the controls ([2]; at X treatment): did not show a reduction in yield | differences in yield compared to the 2X treatment at 3-5 leaf stage [3]: no appreciable differences in yield | chlorosis ([4]; Year 1, 2X Cot and 2X Bolting BBCH55 (2X = 1350 g ae/ha), all three hybrids, one location): 1% | recovery of transient chlorosis ([4]; Year 1, 2X Cot and 2X Bolting BBCH55, 10 days after glyphosate application): Full recovery | chlorosis ([4]; Year 1, 2X Cot and 2X Bolting BBCH55, one hybrid background, second location): 3% | crop response ([4]; Year 1, 2X Cot and 2X Bolting BBCH55, remaining eight locations): no crop response | crop response ([4]; Year 2, extended window glyphosate treatments, four GAT-expressing canola backgrounds): did not have any crop response
